Experimental findings from patent publication US20220267374A1, “IMMUNITY INDUCER AND PHARMACEUTICAL COMPOSITION FOR PREVENTING OR TREATING AGING-RELATED DISEASES” (priority 2019, published 2022) are described below.

The test system of one assay is GPNMB protein. Nature of the assay: Western blotting analysis of adipose tissue. Type of assay: in vivo, C57BL/6 mice. Particulars: HFD-fed mice, 16 weeks of age, s.c. vaccination at 8 weeks of age, vs control vaccine, FIGS. 2C, 2D. Here is the method: For adipose tissue collected from C57BL/6 mice (16 weeks of age) bred by feeding HFD from 4 weeks of age and administered with peptide vaccine 1 or a control vaccine by subcutaneous injection at a time point of 8 weeks of age, whole-cell lysates were prepared in lysis buffer (containing 10 mmol/L of Tris-HCl (pH 8), 140 mmol/L of sodium chloride, 5 mmol/L of EDTA, 0.025% of NaN3, 1 w/v % of Triton X-100, 1 w/v % of deoxycholic acid, 0.1 w/v % of SDS, 1 mmol/L of phenylmethylsulfonyl fluoride (PMSF), 5 μg/mL of leypeptin, 2 μg/mL of aprotinin, 50 mmol/L of NaF, and 1 mmol/L of […]). Then the lysates (40 to 50 μg) was separated by SDS-PAGE, the protein was transferred to a PVDF membrane (Millipore), and this was incubated with a primary antibody, followed by horseradish peroxidase (Jackson)-binding anti-rabbit immunoglobulin G (Jackson ImmunoResearch). GPNMB and β-actin were detected by enhanced chemiluminescence (Amersham). As a primary antibody, an anti-GPNMB antibody (AF2330, R & D Systems) (1/1000 dilution) was used, and as a control, anti-β-actin antibody (#4967, Cell Signaling) (1/5000 dilution) was used. As a secondary antibody, peroxidase-binding AffiniPure goat anti-rabbit IgG (H+L) (111-035-003, Jackson ImmunoResearch) (1/10000 dilution) was used. […]
A general note: Immunoblotting shows a protein as a band on a membrane.

The next assay deals with GPNMB-positive cells. The assay can be described thus: Gpnmb-dependent luciferase activity in the aorta. The format is in vivo, ApoE/Gpnmb-DTR mice. Particulars: HFD from 4 to 16 weeks of age, s.c. vaccination at 8 weeks of age; vs control vaccine; FIG. 2J. Here is the method: Gpnmb-DTR mouse bred by feeding normal diet or HFD for 4 weeks, and Gpnmb-DTR mouse bred by feeding HFD for 4 weeks, and then injecting DT (50 μg/kg body weight) at 2-week intervals (12 weeks of age and 14 weeks of age) intraperitoneally twice while continuing to feed HFD (16 weeks of age) were subjected to in vivo luciferase imaging analysis using the IVIS imaging system (Perkin Elmer). Mice were shaved ventrally, anesthetized with isoflurane (Wako Pure Chemicals Industries), and injected intraperitoneally with luciferin (150 mg/kg body weight) according to the manufacturer's instructions (Vivo-Glo; Promega). Luciferase activity was monitored 5 minutes after luciferin administration. Signals were analyzed using Living Image software (Perkin Elmer) to quantify luciferase activity. […]
Detection of arteriosclerotic plaque and analysis of Gpnmb-dependent luciferase activity were performed using the same method as in “6.” and “2.” of Reference Example 1, except that ApoE/Gpnmb-DTR mice (16 weeks of age) bred while feeding HFD for 12 weeks from 4 to 16 weeks of age and administered with peptide vaccine 1 or a control vaccine by subcutaneous injection at a time point of 8 weeks of age were used (refer to FIG. 2J). The Oil Red O stained region was quantified by Image-J software (refer to FIG. 2K). […]

Assay [1] can be described thus: Survival curve (Kaplan-Meier). The format is in vivo, Zmpste24 KO mice. The following applies: normal diet, s.c. vaccination at 10 weeks of age; regardless of gender; FIG. 2M. How it is done:
In addition, Zmpste24-deficient (KO) mice (model of Hutchinson-Gilford progeria syndrome, MGI: 2158363) were used as a model of premature aging mice. Generation and genotyping of Zmpste24 KO mice followed the previous report (http://www.informatics.jax.org/allele/MGI:2158363).
Zmpste24 KO mice were bred on normal diet. For some Zmpste24 KO mice, peptide vaccine 1 was administered by subcutaneous injection at a time point of 10 weeks of age (about 50 weeks of age in C57BL/6 mice). Survival curves were calculated by the Kaplan-Meier method and compared by a log-rank test (refer to FIG. 2M).

Ends that are not written are not given here.

In the case of “RRGDGRWKD (also: KLH conjugate; listed as Mus musculus) [peptide vaccine 1, peptide of positions 63 to 71 of mouse GPNMB protein]”, the “expression amount of GPNMB protein” value in the assay on GPNMB protein is reported as “decreased”. Besides, the “Gpnmb-dependent luciferase activity in the aorta” value with GPNMB-positive cells is on record as “decreased”. The “lifespan (survival curve)” value in assay [1] was “extended”.
